Measured values taken from US7166739B2, “Esters of monomethyl branched alcohols and process for preparing and using same in cosmetics and personal care products” (Finetex, Inc., priority 2004, dated 2007).

How the values were obtained:
[1] = Surface tension of esters (typical properties); assay type: physicochemical
Experimental: (§1) An analysis of the esters of the invention, i.e., Benzoate ester (Ref. No. 130-63); Octanoate Ester (Ref. No. 130-67); and Maleate Ester (Ref. No. 134-26), was conducted as to appearance, color, percentage water, acidity, saponification value, surface tension, spreading coefficient, freezing point, refractive index and specific gravity. The results are presented in Table I which identifies typical properties of the esters of the invention.

[2] = Spreading coefficient of esters (typical properties); assay type: physicochemical; set-up: unit not given here
Experimental: as §1

[3] = Viscosity of esters (typical properties); assay type: physicochemical; conditions: @ 25° C.
Experimental: as §1

[4] = Solubility of esters in various solvents (1 gram of ester in 10 gm. solvent)

**Q.** With “Di(C16–17 alkyl) maleate [Maleate Ester (134-26)]” as the substance, how does the “Surface Tension” value [1] read?
**A.** The value was 30.5 dynes/cm.

**Q.** And the “Spreading Coefficient” value [2]?
**A.** Its value is 34.0.

**Q.** And the Viscosity [3]?
**A.** The Viscosity was 80 cps.

**Q.** And the “Solubility in Dow Corning Fluid 245/345” value [4]?
**A.** Its value is “+”.

**Q.** What about the “Solubility in Ethanol” value [4] of the same substance?
**A.** Its value is “+”.

**Q.** And the “Solubility in Finester EH-25” value [4]?
**A.** The value was “+”.

**Q.** What about the “Solubility in Finsolv BOD” value [4] of the same substance?
**A.** The value was “+”.

**Q.** What about the “Solubility in Finsolv EB” value [4] of the same substance?
**A.** The value was “+”.

**Q.** And the “Solubility in Finsolv EMG-20” value [4]?
**A.** Its value is “−”.

**Q.** What about the “Solubility in Finsolv P” value [4] of the same substance?
**A.** Its value is “+”.

**Q.** And the “Solubility in Finsolv PG-22” value [4]?
**A.** Its value is “+”.

**Q.** What about the “Solubility in Finsolv PL-62” value [4] of the same substance?
**A.** Its value is “+”.

**Q.** And the “Solubility in Finsolv PL-355” value [4]?
**A.** The value was “+”.

**Q.** And the “Solubility in Finsolv SB” value [4]?
**A.** Its value is “+”.

**Q.** What about the “Solubility in Finsolv TN” value [4] of the same substance?
**A.** The value was “+”.

**Q.** And the “Solubility in Glycerine” value [4]?
**A.** Its value is “−”.

**Q.** What about the “Solubility in IPM/IPP (Witconol 2314/2316)” value [4] of the same substance?
**A.** Its value is “+”.

**Q.** And the “Solubility in Mineral Oil” value [4]?
**A.** The value was “+”.

**Q.** What about the “Solubility in Propylene Glycol” value [4] of the same substance?
**A.** The value was “−”.

**Q.** What about the “Solubility in Water” value [4] of the same substance?
**A.** The value was “−”.
